Entries after “also recorded” stand apart in the source; their conditions may differ. Where two headings read alike, the source gives them in different places.
Experiments:
[1] = Acute subjective effects of LSD (VAS, 5D-ASC) by genotype, pooled phase 1 studies; assay type: in vivo, humans
Description: The Visual Analog Scales (VASs, FIG. 14, Table S5) were presented as 100 mm horizontal lines (0-100%), marked from “not at all” on the left to “extremely” on the right. Subjective effects like “closeness”, “talkative”, “open”, “concentration”, “speed of thinking”, and “trust” were bidirectional (±50 mm). The VASs were applied before and 0, 0.5, 1, 1.5, 2, 2.5, 3, 4, 5, 6, 7, 8, 9 and 10 h after LSD or placebo administration.
The 5 Dimensions of Altered States of Consciousness (5D-ASC) scale (Dittrich, 1998; Studerus et al., 2010) was administered at the end of the acute drug effects to retrospectively rate peak drug responses. The main subscales describing alterations of consciousness are Oceanic Boundlessness (OB), Anxious of Ego Dissolution (AED), Visionary Restructuralization (VR) (FIG. 16).

[2] = Autonomic (physiological) effects of LSD, pooled phase 1 studies; assay type: in vivo, humans
Description: Blood pressure, heart rate, and body temperature were assessed repeatedly before and 0, 0.5, 1, 1.5, 2, 2.5, 3, 4, 5, 6, 7, 8, 9, and 10 h after LSD or placebo administration. Systolic and diastolic blood pressure and heart rate were measured using an automatic oscillometric device (OMRON Healthcare Europe NA, Hoofddorp, Netherlands). The measurements were performed in duplicate at an interval of 1 minute and after a resting time of at least 5 minutes. The averages were calculated for the analysis. Mean arterial pressure (MAP) was calculated as diastolic blood pressure+(systolic blood pressure−diastolic blood pressure)/3. The rate pressure product (RPP) was calculated as systolic blood pressure×heart rate. Core (tympanic) temperature was measured using a Genius 2 ear thermometer (Tyco Healthcare Group LP, Watertown, N.Y., USA).

[3] = cited from earlier work; for duration of LSD effects (mean±SD) / duration of LSD effects (range): Dolder et al., 2017b
[4] = Holze et al., 2021b; cited from earlier work
[5] = cited from earlier work; for subjects with bad drug effects (50% or more on a 0-100% scale at any time point): Dolder et al., 2017a
[6] = human, Dolder et al., 2015; cited from earlier work
[7] = test system: cytochrome P450 enzymes (CYPs); conditions: human liver microsomes; cited from earlier work
[8] = test system: cytochrome P450 enzymes (CYPs); conditions: human liver S9 fraction; cited from earlier work
[9] = Pharmacokinetics of LSD by CYP genotype, pooled analysis of four phase 1 studies; conditions: for Cmax: human, oral, 100 ug, LSD Cmax, compartmental modeling, 100 μg LSD dose, mean±SD
[10] = non-compartmental analysis, plasma
[11] = non-functional vs functional CYP2D6

## CCN(CC)C(=O)[C@@H]1C=C2c3cccc4[nH]cc(c34)C[C@H]2N(C)C1 [LSD, Lysergic acid diethylamide]
[1]; 5D-ASC
  alterations of the mind (5D-ASC total, AED and VR subscales), CYP2D6 PMs compared with functional CYP2D6 subjects: significantly greater alterations of the mind
[1]; HTR1A rs6295
  5D-ASC total score and VR subscale, homozygous carriers of HTR1A rs6295 G allele vs carriers of a C allele: rated lower; also recorded: lower total 5D-ASC, Visionary Restructuralization, and Blissful State ratings
[1]; HTR2A rs6313
  5D-ASC total score and AED subscale, carriers of two HTR2A rs6313 A alleles vs G allele carriers: lower ratings; also recorded: lower alterations of the mind
[1]; VAS any drug effect
  duration of the acute subjective response, CYP2D6 PMs compared with functional CYP2D6 subjects: substantially longer duration; also recorded: longer subjective effect durations
[1]; healthy subjects
  acute subjective effects compared to placebo: significant acute subjective effects on all scales
[2]; HTR1A, HTR1B, HTR2A genotypes
  vital parameters, effect of 5-HT receptor genotypes: not affected
[2]; healthy subjects
  blood pressure, heart rate, and body temperature compared to placebo: moderately increased
[2]; in vivo
  effect of CYP2D6 genotype on the autonomic response: no relevant effect
[3]; 100 μg
  duration of LSD effects (mean±SD): 8.2 ± 2.1 h
  duration of LSD effects (range): 5 to 14 h
[3]; 100 μg, Holze et al., 2019
  duration of subjective effects (mean±SD): 8.5 ± 2.0 h
  duration of subjective effects (range): 5.3 to 12.8 h
[3]; 200 μg
  duration of LSD effects (mean±SD): 11.6 ± 1.7 h
  duration of LSD effects (range): 7 to 19.5 h
[4]
  5D-ASC OB, AED and anxiety ratings, 200 μg compared to 100 μg: did not result in higher OB ratings but increased AED and anxiety
[5]; 100 μg, 3 of 24 subjects
  subjects with bad drug effects (50% or more on a 0-100% scale at any time point): 12.5%
[5]; 100 μg, 7 of 24 subjects, Holze et al., 2019a
  subjects with transient bad drug effects: 29%
[5]; 200 μg, 9 of 16 subjects
  subjects with bad drug effects (50% or more on a 0-100% scale at any time point): 56%
[5]; 200 μg, sixteen healthy humans, Schmid et al., 2015
  subjects with marked anxiety: two
[6]
  parent drug excreted in urine: ~1%
[7]
  CYPs contributing to the N-demethylation of LSD to 6-nor-LSD (Nor-LSD): CYP2D6, 3A4, and 2E1
  CYPs taking part in the formation of the main metabolite 2-oxo-3-hydroxy-LSD (O-H-LSD): CYP2C9, CYP1A2, CYP2E1, and CYP3A4
[8]
  CYPs contributing to the hydroxylation of LSD: CYP1A2 and CYP3A4
  CYPs involved in the formation of Nor-LSD: CYP2C19 and 3A4
[9]; CYP1A2, CYP2B6, CYP2C19, CYP2C9
  effect of genetic polymorphisms of other CYPs on pharmacokinetics or subjective or autonomic effects: no relevant effect
[9]; CYP2D6 activity score groups
  exposure to LSD with lower CYP2D6 activity across all CYP2D6 genotype activity score groups: significantly higher exposure
[9]; LSD AUC∞ z-score vs body weight
  effect of sex or body weight on pharmacokinetics / concentration of LSD in plasma: no relevant effect; also recorded: did not relevantly alter
[9]; plasma, CYP2D6 PMs (non-functional, N=7)
  Cmax: 2.37 ± 0.891 ng/mL
[9]; plasma, functional CYP2D6 subjects (N=74)
  Cmax: 2.06 ± 0.999 ng/mL
[9]; [10]
  AUC∞ and AUC10 values, CYP2D6 PMs compared with functional CYP2D6 carriers: significantly larger
  Cmax, effect of CYP2D6 function: not significantly affected
[9]; [11]
  area under the curve blood plasma concentration (total drug exposure), higher in CYP2D6 poor metabolizers than in functional CYP2D6 carriers: approximately 75%
  half-life (T1/2), CYP2D6 PMs compared with functional CYP2D6 subjects: longer
[9]; non-functional vs functional CYP2D6, non-significant
  mean peak concentration, higher in CYP2D6 PMs than in functional CYP2D6: approximately 15%

## CCN(CC)C(=O)[C@@H]1C=C2c3cccc4c3C(O)(C[C@H]2N(C)C1)C(=O)N4 (stereo partly drawn) [O-H-LSD, 2-oxo-3-hydroxy LSD]
[9]; metabolite in plasma after LSD administration
  AUC∞ values, CYP2D6 PMs compared with functional CYP2D6 subjects: larger
[9]; [11]
  area under the curve blood plasma concentration (total drug exposure), higher in CYP2D6 poor metabolizers than in functional CYP2D6 carriers: approximately 75%

Reference: patent US20220280501A1, “USING GENO- OR P[…] ADJUST LSD DOSING” (Universitätsspital Basel, priority 2021, published 2022)
